# Literature values in paper PMC11034360 (RSC Advances, 2024).
# Tested on: H460, MDA-MB 468, MDA-MB-231 and glioblastoma (BT-33)
# Conditions: comparison drug for Au(III) complexes; ref 45c
smiles,measurement,value
N.N.[Cl][Pt][Cl] [cisplatin],IC50,4.16 µM
